Assay results as given in US12472177B2, “Bicyclic compounds and methods for their use in treating Pitt Hopkins syndrome” (NEUREN PHARMACEUTICALS LIMITED, priority 2019, dated 2025).

Assays:
Tcf4^+/− mice = test: Hind limb force (motor performance); format: in vivo, mouse; set-up: key to Test of Force (Hind Limb): Tukey’s Muliple Comparison Test Summary: **** = p < 0.00001; ns = not significant
Description: In vivo behavioral studies were conducted in Tcf4^+/− mutant and wildtype littermate control (WT) mice by Gen.DDI (Santiago, Chile). Littermate controls consist of the genotypes Tcf4^+/+. All Tcf4 mutant mice used were heterozygous for the Tcf4 mutation because homozygous mutations of Tcf4 result in embryonic to postnatal day 1 lethality. Ten mice per treatment group, 14 weeks of age, were used for behavioral experiments. Experiments were conducted in line with the requirements of the UK Animals (Scientific Procedures) Act, 1986. The mice were housed in plastic cages (35×30×12 cm), 5 in each and habituated to the animal facilities for at least a week before commencing the test. The room temperature (21° C.±2° C.), relative humidity (55%±5%), a 12-hour light-dark cycle (lights on 7 AM to 7 PM), and air exchange were automatically controlled. The animals had free access to commercial food pellets and water. Testing was performed during the light phase of the circadian cycle, with the order of testing being determined by the principle of conducting the most stressful tests last. Assays were designed to reproduce and expand on the original behavioral characterization of Tcf4^+/− mice. Tcf4^+/− and WT control mice were treated for 6 weeks prior to testing and tested 30 minutes following a dose of cG-2-AllylP, as described in Table 2 below.
Hind limb force is an important measure of the ability of a mouse to jump away from a predator. However, animals with the Tcf4^+/− mutation have substantially lower ability to jump away from a predator, making this mutation very serious and potentially life threatening. Hind limb force is also considered a surrogate for motor function in humans. To determine if NNZ-2591 (cG-2-AllylP) might provide a helpful treatment for this condition, we carried out a series of studies in which we measured hind limb force.

[1] = Delivery of cG-2-AllylP into the brain after oral administration (CSF, blood, brain exposure); format: in vivo, Sprague Dawley rats; details: rat
Description: In an in vivo study, male Sprague Dawley rats (aged 14 weeks) received a single dose of cG-2-AllylP, either 100 mg/kg or 200 mg/kg by oral gavage. Cerebrospinal fluid (CSF) and whole blood were collected at 1.5 and 4 hours postdose, and brain tissue was collected at 4 hours postdose to evaluate cG-2-AllylP exposure.

[2] = single oral dose 100 mg/kg, 1.5 h postdose
[3] = single oral dose 100 mg/kg, 4 h postdose
[4] = single oral dose 200 mg/kg, 1.5 h postdose
[5] = single oral dose 200 mg/kg, 4 h postdose

## C=CC[C@]12CCCN1C(=O)CNC2=O [cG-2-AllylP, (8aS)-Allyl-hexahydropyrrolo[1,2-a]pyrazine-1,4-dione]
Tcf4^+/− mice; Tcf4^+/− + cG-2-AllylP (100 mg/kg) vs Tcf4^+/− + cG-2-AllylP (200 mg/kg)
  Test of Force (Hind Limb): Tukey’s Muliple Comparison Test Summary: ns
Tcf4^+/− mice; Tcf4^+/− + cG-2-AllylP (100 mg/kg) vs WT + cG-2-AllylP (200 mg/kg)
  Test of Force (Hind Limb): Tukey’s Muliple Comparison Test Summary: ns
Tcf4^+/− mice; Tcf4^+/− + vehicle vs Tcf4^+/− + cG-2-AllylP (100 mg/kg)
  Test of Force (Hind Limb): Tukey’s Muliple Comparison Test Summary: **** (**** = p <0.00001)
Tcf4^+/− mice; Tcf4^+/− + vehicle vs Tcf4^+/− + cG-2-AllylP (200 mg/kg)
  Test of Force (Hind Limb): Tukey’s Muliple Comparison Test Summary: **** (**** = p <0.00001)
Tcf4^+/− mice; Tcf4^+/− + vehicle vs WT + cG-2-AllylP (100 mg/kg)
  Test of Force (Hind Limb): Tukey’s Muliple Comparison Test Summary: **** (**** = p <0.00001)
Tcf4^+/− mice; Tcf4^+/− + vehicle vs WT + cG-2-AllylP (200 mg/kg)
  Test of Force (Hind Limb): Tukey’s Muliple Comparison Test Summary: **** (**** = p <0.00001)
Tcf4^+/− mice; Tcf4^+/− mice, 100 mg/kg
  Behavior Normalized to WildType Levels: Force: ✓
Tcf4^+/− mice; Tcf4^+/− mice, 100 mg/kg oral BID 6 weeks
  Hind limb force: nearly identical to those produced by WT mice
Tcf4^+/− mice; Tcf4^+/− mice, 200 mg/kg
  Behavior Normalized to WildType Levels: Force: ✓
Tcf4^+/− mice; Tcf4^+/− mice, 200 mg/kg oral BID 6 weeks
  Hind limb force: nearly identical to those produced by WT mice
Tcf4^+/− mice; WT + cG-2-AllylP (100 mg/kg) vs Tcf4^+/− + cG-2-AllylP (100 mg/kg)
  Test of Force (Hind Limb): Tukey’s Muliple Comparison Test Summary: ns
Tcf4^+/− mice; WT + cG-2-AllylP (100 mg/kg) vs Tcf4^+/− + cG-2-AllylP (200 mg/kg)
  Test of Force (Hind Limb): Tukey’s Muliple Comparison Test Summary: ns
Tcf4^+/− mice; WT + cG-2-AllylP (100 mg/kg) vs WT + cG-2-AllylP (200 mg/kg)
  Test of Force (Hind Limb): Tukey’s Muliple Comparison Test Summary: ns
Tcf4^+/− mice; WT + cG-2-AllylP (200 mg/kg) vs Tcf4^+/− + cG-2-AllylP (200 mg/kg)
  Test of Force (Hind Limb): Tukey’s Muliple Comparison Test Summary: ns
Tcf4^+/− mice; WT + vehicle vs Tcf4^+/− + cG-2-AllylP (100 mg/kg)
  Test of Force (Hind Limb): Tukey’s Muliple Comparison Test Summary: ns
Tcf4^+/− mice; WT + vehicle vs Tcf4^+/− + cG-2-AllylP (200 mg/kg)
  Test of Force (Hind Limb): Tukey’s Muliple Comparison Test Summary: ns
Tcf4^+/− mice; WT + vehicle vs WT + cG-2-AllylP (100 mg/kg)
  Test of Force (Hind Limb): Tukey’s Muliple Comparison Test Summary: ns
Tcf4^+/− mice; WT + vehicle vs WT + cG-2-AllylP (200 mg/kg)
  Test of Force (Hind Limb): Tukey’s Muliple Comparison Test Summary: ns
Tcf4^+/− mice; WT mice, 100 mg/kg oral BID 6 weeks
  Hind limb force: about the same levels of force as vehicle-treated WT mice
Tcf4^+/− mice; WT mice, 200 mg/kg oral BID 6 weeks
  Hind limb force: about the same levels of force as vehicle-treated WT mice
[1]; 100 vs 200 mg/kg single oral dose, blood and CSF at 1.5 h, blood, CSF and brain at 4 h
  Dose dependence of concentration in blood, CSF and brain: approximately proportional increase
[1]; 4 hours post dose
  Concentration in blood compared with brain tissue: approximately equivalent
[1]; [2]
  Concentration of cG-2-AllylP in Blood: 58500 ng/mL
  Concentration of cG-2-AllylP in CSF: 40400 ng/mL
[1]; [3]
  Concentration of cG-2-AllylP in Blood: 15600 ng/mL
  Concentration of cG-2-AllylP in Brain: 22600 ng/mL
  Concentration of cG-2-AllylP in CSF: 11000 ng/mL
[1]; [4]
  Concentration of cG-2-AllylP in Blood: 116000 ng/mL
  Concentration of cG-2-AllylP in CSF: 82200 ng/mL
[1]; [5]
  Concentration of cG-2-AllylP in Blood: 34200 ng/mL
  Concentration of cG-2-AllylP in Brain: 37000 ng/mL
  Concentration of cG-2-AllylP in CSF: 24700 ng/mL
